Experimental data reported in EP1190034B1, “BLEACH ACTIVATOR BASED ON INULIN” (Coöperatie Cosun U.A., priority 1999, dated 2001).

Tests used:
Solubility in water = type: physicochemical
[1] = Bleach activator test procedure (peracetic acid liberated, iodometric titration); settings: hydrogen peroxide, 30 °C, pH 11.6, 4 minutes, correction factor 1.10
Procedure: The bleach activator property is determined on the basis of the quantity of peracetic acid that can be liberated from the product. […] The best characteristics are found when the acylation is carried out in water at controlled pH (Table 1).
Mix the following solutions: • 15 ml 0.6% hydrogen peroxide solution • 10 ml saturated sodium pyrophosphate solution • 10 ml 0.05% EDTA solution. • Make up to 100 ml with demineralised water and heat to 30 °C. • Add the heated mixture to an accurately weighed amount (75 - 90 mg) of bleach activator in a 600 ml glass beaker. • Adjust the pH to 11.6 with 0.1 M NaOH solution. • Precisely 4 minutes after the first addition add 30 ml 0.1% catalase solution. • Adjust the pH to 10.5 with 0.5 M sulphuric acid solution and cool the solution to 0 - 3 °C. • Precisely 6 minutes after the first addition add 15 ml 100% acetic acid solution and 15 ml 10% potassium iodide solution. • Titrate the liberated iodine against a 0.1 M thiosulphate solution. The mol% peracetic acid liberated from the bleach activator can be calculated from the quantity of thiosulphate solution required, 2 mmol thiosulphate corresponding to 1 mmol peracetic acid formed. The determinations were corrected for the loss of peracetic acid during the measurement. The correction factor for this loss is 1.10.

CC(=O)N(CCN(C(C)=O)C(C)=O)C(C)=O [TAED, tetraacetylethylenediamine]
Solubility (%) (Solubility in water): 0.1%
Peracetate formed (mol%) ([1]; 100 x number of mols of peracetate formed / total number of mols of acetyl groups in product): 45 mol%
mol peracetate/ kg product [1]: 7.9 mol peracetate/ kg product
